Laboratory results taken from patent US11931343B2 (ARCUS BIOSCIENCES, INC., priority 2018, dated 2024).

Molecular target: T1, human CD73 (Homo sapiens, UniProt P21589)
T1 sequence (P21589 27-549): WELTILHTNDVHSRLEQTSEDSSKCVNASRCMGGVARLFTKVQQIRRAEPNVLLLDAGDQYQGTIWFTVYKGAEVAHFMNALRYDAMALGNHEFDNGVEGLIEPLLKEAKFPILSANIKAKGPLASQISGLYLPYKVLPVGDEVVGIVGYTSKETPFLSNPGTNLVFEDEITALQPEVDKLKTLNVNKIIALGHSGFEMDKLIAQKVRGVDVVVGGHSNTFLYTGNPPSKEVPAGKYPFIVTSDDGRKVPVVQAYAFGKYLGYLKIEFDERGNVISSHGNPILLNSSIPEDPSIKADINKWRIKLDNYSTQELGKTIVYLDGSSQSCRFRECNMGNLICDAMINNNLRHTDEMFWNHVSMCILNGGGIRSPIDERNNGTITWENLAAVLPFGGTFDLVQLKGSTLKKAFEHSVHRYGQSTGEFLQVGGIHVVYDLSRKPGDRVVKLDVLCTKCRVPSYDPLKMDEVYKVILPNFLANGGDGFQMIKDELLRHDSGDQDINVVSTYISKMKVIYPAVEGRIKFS
Assay: Inhibition of Ecto-5′-nucleotidase (CD73) activity in CHO-CD73 cells, phosphate release from AMP
Assay type: cell-based
Conditions: CHO-K1 cells stably transfected with human CD73; 25 μM AMP; 50 minutes, 37° C.; read-out: Potency: CD73 IC50

| IC50 | SMILES |
| --- | --- |
| 100 to 1000 nM | CC(c1ccc(C#N)cc1)n1nccc1-c1ccc2nnn(-c3ccc4cn[nH]c4c3)c2c1 (centres unmarked) [Example 115] |
| < 100 nM | N#Cc1ccc(Cn2nccc2-c2cc(F)c3nnn(-c4ccc5cn[nH]c5n4)c3c2)cc1 [Example 367] |
| 100 to 1000 nM | Cc1ccc(Cn2nccc2-c2cc(F)c3nnn(-c4ccc5cn[nH]c5c4)c3c2)cc1 [Example 100] |
| 100 to 1000 nM | N#Cc1ccc(Cn2c(-c3cc(F)c4nnn(-c5ccc6[nH]c(=O)[nH]c6c5)c4c3)c[nH]c2=O)cc1 [Example 333] |
| 100 to 1000 nM | Fc1cc(-c2ccnn2Cc2ccc(C(F)F)cc2)cc2c1nnn2-c1ccc2cn[nH]c2c1 [Example 91] |
| 100 to 1000 nM | CC(c1ccc(Br)cn1)n1nccc1-c1ccc2nnn(-c3ccc4cn[nH]c4c3)c2c1 (centres unmarked) [Example 92] |
| 100 to 1000 nM | O=c1[nH]c2ccc(-n3nnc4c(Cl)cc(-c5ccnn5Cc5ccc(F)cn5)cc43)cc2[nH]1 [Example 200] |
| > 1000 nM | N#Cc1ccc(Cn2nccc2-c2cc3c(cn2)ncn3-c2ccc3cn[nH]c3c2)cc1 [Example 146] |
| 100 to 1000 nM | N#Cc1ccc(Cn2ncc(F)c2-c2cc(F)c3nnn(-c4ccc5[nH]c(=O)[nH]c5c4)c3c2)cc1 [Example 331] |
| > 1000 nM | N#Cc1ccc(Cn2nccc2-c2cc(Cl)c3nnn(-c4ccc5[nH]c(=O)[nH]c5c4)c3c2)c(N2CCOCC2)c1 [Example 288] |
| < 100 nM | N#Cc1ccc(Cn2nccc2-c2cc3c(nnn3-c3ccc4cn[nH]c4c3)c(=O)[nH]2)cc1 [Example 352] |
| > 1000 nM | Cc1cc(C#N)cnc1Cn1nccc1-c1cc(F)c2nnn(-c3ccc4[nH]c(=O)[nH]c4c3)c2c1 [Example 280] |
| 100 to 1000 nM | N#Cc1ccc(Cn2nccc2-c2cnc3c(F)nn(-c4ccc5[nH]c(=O)[nH]c5c4)c3c2)cc1 [Example 329] |
| 100 to 1000 nM | CC(c1ccc(Cl)cn1)n1nccc1-c1cc(F)c2nnn(-c3ccc4cn[nH]c4c3)c2c1 (centres unmarked) [Example 377] |
| > 1000 nM | CC(C)(O)c1ccc(Cn2nccc2-c2cc(F)c3nnn(-c4ccc5[nH]c(=O)[nH]c5c4)c3c2)cc1 [Example 183] |
| 100 to 1000 nM | Fc1cc(-c2ccnn2Cc2ccccc2C(F)(F)F)cc2c1nnn2-c1ccc2cn[nH]c2c1 [Example 103] |
| > 1000 nM | CCNc1nn(-c2ccc3cn[nH]c3c2)c2cc(-c3ccnn3Cc3ccc(C#N)cc3)cnc12 [Example 425] |
| 100 to 1000 nM | CS(=O)(=O)c1cc(C#N)ccc1Cn1nccc1-c1cc(F)c2nnn(-c3ccc4[nH]c(=O)[nH]c4c3)c2c1 [Example 260] |
| > 1000 nM | Cc1ccc(F)c(-n2nccc2-c2cc(F)c3nnn(-c4ccc5cn[nH]c5c4)c3c2)c1 [Example 388] |
| 100 to 1000 nM | N#Cc1ccc(Cn2nccc2-c2cc(F)c3nnn(-c4ccc5[nH]c(=O)[nH]c5c4)c3c2)c(-c2ncco2)c1 [Example 299] |
| > 1000 nM | Cc1cccc(-n2nccc2-c2cc(F)c3nnn(-c4ccc5[nH]c(=O)[nH]c5c4)c3c2)c1 [Example 216] |
| 100 to 1000 nM | N#Cc1ccc(Cn2nccc2-c2cc(F)c3nnn(-c4ccc5[nH]c(=O)[nH]c5c4)c3c2)nc1 [Example 176] |
| > 1000 nM | N#Cc1ccc(Cn2nccc2-c2cc3c(cn2)cnn3-c2ccc3cn[nH]c3c2)cc1 [Example 147] |

| IC50 | SMILES |
| --- | --- |
| 100 to 1000 nM | Cc1cccc(-n2nccc2-c2cnc3c(C)nn(-c4ccc5cn[nH]c5c4)c3c2)c1 [Example 408] |
| 100 to 1000 nM | O=c1[nH]c2ccc(-n3nnc4c(Cl)cc(-c5ccnn5C5Cc6ccc(Cl)cc6C5)cc43)cc2[nH]1 (centres unmarked) [Example 275] |
| > 1000 nM | N#Cc1ccccc1Cn1nccc1-c1cc(F)c2nnn(-c3ccc4[nH]c(=O)[nH]c4c3)c2c1 [Example 214] |
| 100 to 1000 nM | N#Cc1ccc(Cn2nccc2-c2cc3c(cn2)nnn3-c2ccc3cn[nH]c3c2)cc1 [Example 140] |
| 100 to 1000 nM | N#Cc1ccc(Cn2nccc2-c2cc3c(nnn3-c3ccc4[nH]c(=O)[nH]c4c3)c(=O)[nH]2)cc1 [Example 359] |
| 100 to 1000 nM | O=c1[nH]c2ccc(-n3nnc4c(F)cc(-c5ccnn5Cc5cccc(Cl)c5Cl)cc43)cc2[nH]1 [Example 283] |
| 100 to 1000 nM | N#Cc1cc(F)c(Cn2nccc2-c2cc(Cl)c3nnn(-c4ccc5[nH]c(=O)[nH]c5c4)c3c2)cc1F [Example 272] |
| 100 to 1000 nM | Cn1nc(-c2ccc3[nH]c(=O)[nH]c3c2)c2cc(-c3ccnn3Cc3ccc(C#N)cc3)cnc21 [Example 316] |
| 100 to 1000 nM | O=c1[nH]c2ccc(-n3nnc4cnc(-c5ccnn5Cc5ccc(F)cn5)cc43)cc2[nH]1 [Example 189] |
| 100 to 1000 nM | N#Cc1ccc(Cn2nccc2-c2cc(F)c3nnn(-c4ccc5[nH]c(=O)[nH]c5c4)c3c2)c(C#N)c1 [Example 211] |
| > 1000 nM | O=c1[nH]c2ccc(-n3nnc4c(F)cc(-c5ccnn5Cc5ccc6c(c5)OC(F)(F)O6)cc43)cc2[nH]1 [Example 233] |
| < 100 nM | Cc1ccc(Cn2nccc2-c2cc(Cl)c3nnn(-c4ccc5cn[nH]c5c4)c3c2)cc1 [Example 54] |
| 100 to 1000 nM | FC(F)(F)c1cc(-c2ccnn2Cc2ccc(Cl)cc2Cl)cc2c1nnn2-c1ccc2cn[nH]c2c1 [Example 122] |
| 100 to 1000 nM | N#Cc1ccc(Cn2nccc2-c2ccc3nnn(-c4ccc5[nH]c(=O)[nH]c5c4)c3c2)c(F)c1 [Example 240] |
| 100 to 1000 nM | N#Cc1ccc(Cn2nccc2-c2cc3c(cn2)c(N)nn3-c2ccc3[nH]c(=O)[nH]c3c2)cc1 [Example 314] |
| 100 to 1000 nM | N#Cc1cc(F)c(Cn2nccc2-c2cc(Cl)c3nnn(-c4ccc5[nH]c(=O)[nH]c5c4)c3c2)c(F)c1 [Example 273] |
| 100 to 1000 nM | Cc1cccc(-n2nccc2-c2cc(Cl)c3nnn(-c4ccc5[nH]c(=O)[nH]c5c4)c3c2)c1 [Example 217] |
| > 1000 nM | Cc1cc2nnn(-c3ccc4cn[nH]c4c3)c2cc1-c1ccnn1C(C)c1ccc(C#N)cc1 (centres unmarked) [Example 398] |
| < 100 nM | N#Cc1ccc(Cn2nccc2-c2cc(Cl)c3nnn(-c4ccc5cn[nH]c5c4)c3c2)c(F)c1 [Example 112] |
| 100 to 1000 nM | Cc1ccc(C(C)n2nccc2-c2cc(Cl)c3nnn(-c4ccc5cn[nH]c5c4)c3c2)[n+]([O-])c1 (centres unmarked) [Example 390] |
| 100 to 1000 nM | CC(c1ccc(C#N)cc1)n1nccc1-c1cc2c(cc1Cl)nnn2-c1ccc2cn[nH]c2c1 (centres unmarked) [Example 401] |
| 100 to 1000 nM | Cc1nn(-c2ccc3cn[nH]c3c2)c2cc(-c3ccnn3Cc3ccc(C#N)cc3)ncc12 [Example 405] |
| > 1000 nM | Cc1cc2nnn(-c3ccc4cn[nH]c4c3)c2cc1-c1ccnn1C(C)c1ccc(Cl)cn1 (centres unmarked) [Example 399] |

| IC50 | SMILES |
| --- | --- |
| 100 to 1000 nM | N#Cc1ccc(Cn2nccc2-c2cnc3nnn(-c4ccc5cn[nH]c5c4)c3c2)cc1 [Example 129] |
| 100 to 1000 nM | Clc1cnc(Cn2nccc2-c2cc(Cl)c3nnn(-c4ccc5cn[nH]c5c4)c3c2)c(Cl)c1 [Example 80] |
| > 1000 nM | O=C(O)c1cccc(-n2nnc3c(F)cc(-c4ccnn4Cc4ccc(Cl)cc4Cl)cc32)c1 [Example 132] |
| < 100 nM | Fc1cc(Cn2nccc2-c2ccc3nnn(-c4ccc5cn[nH]c5c4)c3c2)ccc1Cl [Example 58] |
| > 1000 nM | Cn1c(=O)n(-c2ccc3cn[nH]c3c2)c2cc(-c3ccnn3Cc3ccc(C#N)cc3)cnc21 [Example 332] |
| > 1000 nM | CNc1nn(-c2ccc3cn[nH]c3c2)c2cc(-c3ccnn3Cc3ccc(C#N)cc3)cnc12 [Example 423] |
| 100 to 1000 nM | CC(C)c1cccc(-n2nccc2-c2cc(Cl)c3nnn(-c4ccc5[nH]c(=O)[nH]c5c4)c3c2)c1 [Example 258] |
| > 1000 nM | Cn1nccc1Cn1nccc1-c1cc(F)c2nnn(-c3ccc4[nH]c(=O)[nH]c4c3)c2c1 [Example 249] |
| 100 to 1000 nM | CC(c1ccc(Cl)cn1)n1nccc1-c1cc2c(cc1F)nnn2-c1ccc2cn[nH]c2c1 (centres unmarked) [Example 383] |
| 100 to 1000 nM | Cc1nn(-c2ccc3cn[nH]c3c2)c2cc(-c3ccnn3Cc3ccc(Cl)cc3)cnc12 [Example 386] |
| 100 to 1000 nM | N#Cc1cnc(Cn2nccc2-c2cc(Cl)c3nnn(-c4ccc5[nH]c(=O)[nH]c5c4)c3c2)c(Cl)c1 [Example 269] |
| 100 to 1000 nM | Cc1nn(-c2ccc3cn[nH]c3c2)c2cc(-c3ccnn3Cc3ccc(C#N)cc3)cnc12 [Example 317] |
| 100 to 1000 nM | Fc1cc(Cl)cnc1Cn1nccc1-c1cc(Cl)c2nnn(-c3ccc4cn[nH]c4c3)c2c1 [Example 104] |
| > 1000 nM | O=c1[nH]c2ccc(-n3nnc4c(F)cc(-c5ccnn5CCOc5ccccc5)cc43)cc2[nH]1 [Example 202] |
| 100 to 1000 nM | Cc1ccc(C(C)n2nccc2-c2cc(F)c3nnn(-c4ccc5cn[nH]c5c4)c3c2)nc1 (centres unmarked) [Example 396] |
| 100 to 1000 nM | O=c1[nH]c2ccc(-n3nnc4c(Cl)cc(-c5ccnn5Cc5ccncc5Cl)cc43)cc2[nH]1 [Example 230] |
| > 1000 nM | Fc1cc2nnn(-c3ccc4cn[nH]c4c3)c2cc1-c1ccnn1Cc1ccccc1 [Example 136] |
| 100 to 1000 nM | N#Cc1ccc(Cn2nccc2-c2cc(F)c3nnn(-c4ccc5[nH]c(=O)[nH]c5c4)c3c2)c(C(N)=O)c1 [Example 290] |
| > 1000 nM | N#Cc1ccc(Cn2nccc2-c2cnc3c(c2)c(-c2ccc4[nH]c(=O)[nH]c4c2)nn3CCO)cc1 [Example 324] |
| > 1000 nM | CC(c1ccccc1)n1nccc1-c1ccc2nnn(-c3ccc4cn[nH]c4c3)c2c1 (centres unmarked) [Example 72] |
| 100 to 1000 nM | N#Cc1ccc(Cn2nccc2-c2cnc3c(N)nn(-c4ccc5[nH]c(=O)[nH]c5c4)c3c2)cc1 [Example 219] |
| > 1000 nM | N#Cc1ccc(Cn2nccc2-c2cc(F)c3cnn(-c4ccc5cn[nH]c5c4)c3c2)nc1 [Example 131] |
